In patent publication US6211168A, “Methods for preparation and use of 1α,24 (S)-dihydroxy vitamin D2” (Bone Care International, Inc, priority 1995, dated 2001):

Assays:
[1] = test system: healthy postmenopausal women; assay: prophylaxis of postmenopausal bone loss; format: in vivo, human; settings: at or above 1.0 μg/day
Experimental: A clinical study is conducted with healthy postmenopausal women having ages between 55 and 60 years. The study involves up to 80 patients randomly divided into two treatment groups, and continues for 24 to 36 months. One treatment group receives a constant dosage of 1α,24(S)-dihydroxy vitamin D2 (u.i.d.; a dose level at or above 1.0 μg/day) and the other receives a matching placebo. The study is conducted as indicated in Example 2 above.

[2] = test system: human cancer cell lines BCA-1 or ZR-75-1 (breast) and COL-1 (colon); assay: antiproliferative activity in human cancer cell lines (thymidine incorporation); format: cell-based; settings: dose-response
Experimental: Dose-response studies are conducted with 1α,24(S)-(OH)2 D2 in a battery of human cancer cell lines. These cell lines include, but are not limited to, the following: BCA-1 or ZR-75-1 (breast) and COL-1 (colon), as described by Shieh, H. L. et al. Chem. Biol. Interact., vol. 81, pp. 35-55 (1982). In this study, appropriate solvents are used as negative controls.

[3] = test system: men and women with renal disease undergoing chronic hemodialysis; assay: hypocalcemia and metabolic bone disease in chronic hemodialysis patients; format: in vivo, human; settings: greater than 3.0 μg/day, twelve months
Experimental: A twelve-month, double-blind, placebo-controlled clinical trial is conducted with thirty men and women with renal disease who are undergoing chronic hemodialysis. […] Efficacy is evaluated by pre- and post-treatment comparisons of the two patient groups with regard to (a) direct measurements of intestinal calcium absorption, (b) total body calcium retention, (c) radial and spinal bone mineral density, or (d) determinations of serum calcium. Safety is evaluated by regular monitoring of serum calcium.

[4] = test system: Human keratinocytes; assay: epidermal cell differentiation and proliferation testing; format: cell-based; settings: 0.05 to 5 μg/ml, versus ethanol control cultures
Experimental: Human keratinocytes are cultured according to known modifications of the system originally described by Rheinwald and Green (Cell, vol. 6, p. 331 (1975)). The 1α,24(S)-dihydroxy vitamin D2, dissolved in ethanol, is added to cells to yield a variety of concentrations between 0.05 and 5 μg/ml with the ethanol concentration not to exceed 0.5% v/v. Control cultures are supplemented with ethanol at a final concentration of 0.5% v/v.
Differentiation and proliferation of epidermal cells in culture is examined by:
1. quantitation of cornified envelopes;
2. quantitation of cell density of cells attached to disks;
3. monitoring transglutaminase activity; or
4. monitoring DNA synthesis by incorporation of ^3 H-thymidine.

[5] = test system: postmenopausal osteoporotic out-patients; assay: preventive treatment of bone mass loss in postmenopausal osteoporotic women; format: in vivo, human; settings: at or above 1.0 μg/day, 24 to 36 months
Experimental: A clinical study is conducted with postmenopausal osteoporotic out-patientshaving ages between 55 and 75 years. The study involves up to 120 patients randomly divided into three treatment groups and continues for 24 to 36 months. Two of the treatment groups receive constant dosages of 1α,24(S)-dihydroxy vitamin D2 (u.i.d.; two different dose levels at or above 1.0 μg/day) and the other group receives a matching placebo. All patients maintain a normal intake of dietary calcium (500 to 800 mg/day) and refrain from using calcium supplements. Efficacy is evaluated by pre-and post-treatment comparisons of the patient groups with regard to (a) total body calcium retention, and (b) radial and spinal bone mineral density as determined by dual-photon absorptiometry (DPA) or dual-energy x-ray absorptiometry (DEXA). Safety is evaluated by comparisons of urinary hydroxyproline excretion, serum and urine calcium levels, creatinine clearance, blood urea nitrogen, and other routine determinations.

[6] = target: T1, vitamin D receptor (VDR) (Homo sapiens, UniProt P11473); assay: vitamin D-dependent transcriptional activation: growth hormone production in transfected COS-1 cells; format: cell-based; settings: transfected COS-1 cells
T1 construct: RXR partner endogenous (monkey)
T1 sequence (P11473 1-427): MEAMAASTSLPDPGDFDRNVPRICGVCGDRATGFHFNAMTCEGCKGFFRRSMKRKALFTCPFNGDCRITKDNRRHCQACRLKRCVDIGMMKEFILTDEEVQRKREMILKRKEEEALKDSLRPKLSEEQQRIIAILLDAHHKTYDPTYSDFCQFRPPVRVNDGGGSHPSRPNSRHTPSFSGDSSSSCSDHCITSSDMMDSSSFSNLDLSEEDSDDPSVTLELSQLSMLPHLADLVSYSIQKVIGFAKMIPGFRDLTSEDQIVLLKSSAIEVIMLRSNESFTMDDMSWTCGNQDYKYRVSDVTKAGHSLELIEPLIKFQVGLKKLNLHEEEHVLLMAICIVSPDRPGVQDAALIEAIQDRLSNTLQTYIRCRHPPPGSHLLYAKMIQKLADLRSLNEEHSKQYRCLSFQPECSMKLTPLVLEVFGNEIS
Experimental: The biological activity in vitro of chemically synthesized 1α,24(S)-(OH)2 D2 and 1α,24(R)-(OH)2 D2 was measured using a vitamin D-dependent transcriptional activation model system in which a vitamin D receptor (VDR)-expressing plasmid pSG5-hVDR1/3and a plasmid p(CT4)^4 TKGH containing a Growth Hormone (GH)-gene, under the control of a vitamin D-responsive element (VDRE) were co-transfected into Green monkey kidney, COS-1 cells. DNA's for these two vectors were supplied by Dr. Mark Haussler, Department of Biochemistry, University of Arizona, Tucson, Ariz.
Tranfected cells were incubated with vitamin D metabolites and growth hormone production was measured.

[7] = test system: HL-60 promyelocytes; assay: HL-60 cell differentiation assay; format: cell-based; settings: dose-response; acid esterase, NBT reduction, thymidine incorporation
Experimental: A dose-response study is conducted with 1α,24(S)-(OH)2 D2 in the HL-60 cell differentiation assay as described by DeLuca and Ostrom (DeLuca, H. F. and Ostrem, V. K., Prog. Clin. Biol. Res., vol. 259, pp. 41-55 (1988)). In this study, 1α,25-(OH)2 D3 is used as a positive control and appropriate solvents are used as negative controls. The following variables are evaluated: nonspecific acid esterase activity, nitroblue tetrazolium (NBT) reduction, and thymidine incorporation.

With `C=C1/C(=C\C=C2/CCC[C@]3(C)[C@@H]([C@H](C)/C=C/[C@@](C)(O)C(C)C)CC[C@@H]23)C[C@@H](O)C[C@@H]1O` [1α,24(S)-(OH)2 D2, 1α,24(S)-dihydroxy vitamin D2] as the compound, how does the “losses in total body calcium, radial or spinal bone densities relative to baseline” value ([1]; 24 to 36 months) read?
Its value is “reduced losses in total body calcium, radial or spinal bone densities relative to baseline values”.

What about the monitored safety parameters ([1]; long-term administration) of the same compound?
The monitored safety parameters was “confirm the safety of long-term 1α,24(S)-dihydroxy vitamin D2 administration”.

What about the “antiproliferative activity, inhibition of thymidine incorporation” value [2] of the same compound?
The value was “potent (and reversible) antiproliferative activity”.

And the “radial and spinal bone densities relative to baseline” value [3]?
Its value is “stable radial and spinal bone densities”.

What about the “total body calcium relative to baseline” value [3] of the same compound?
Its value is “stable values for total body calcium”.

And the intestinal calcium absorption ([3]; double-isotope technique)?
The intestinal calcium absorption was “significantly increases intestinal calcium absorption”.

And the “DNA synthesis by incorporation of 3H-thymidine” value [4]?
The value was “lower DNA synthesis”.

What about the “cell density of cells attached to disks” value [4] of the same compound?
Its value is “fewer attached cells”.

And the cornified envelopes [4]?
Its cornified envelopes is “more cornified envelopes”.

And the transglutaminase activity [4]?
The transglutaminase activity was “higher transglutaminase activity”.

What about the “incidence of hypercalcemia, hypercalciuria or other metabolic disturbance” value [5] of the same compound?
Its value is “insignificant incidence of hypercalcemia or hypercalciuria, or any other metabolic disturbance”.

And the “total body calcium, radial and spinal bone densities relative to placebo” value [5]?
The value was “significantly higher total body calcium, and radial and spinal bone densities relative to patients treated with placebo”.

And the “activity in the transcriptional activation system compared with the 24(R) epimer” value [6]?
Its value is “significantly more activity in this system than 1α,24(R)-(OH)2 D2”.

And the “differentiation of HL-60 promyelocytes to monocytes” value [7]?
The value was “potent activity in promoting differentiation of HL-60 promyelocytes to monocytes”.
